Results on 4 compounds are retold here after US6632833B1, “2-(2-methylphenyl)-3,4-dihydro-2H-pyrrole derivatives” (Bayer Aktiengesellschaft, priority 1998, dated 2003).

Molecules are shown by their SMILES. Where two headings read alike, the source gives them in different places.

Data set [1] concerns caterpillars of the diamond-back moth (Plutella xylostella). Kind of data set: Plutella test. It is filed as in vivo. The note with it: concentration of active compound 0.004%; after 6 days; dipped cabbage leaves. On the procedure: (§1) To produce a suitable preparation of active compound, 1 part by weight of active compound is mixed with the stated amounts of solvent and emulsifier, and the concentrate is diluted with emusifier-containing water to the desired concentration.
Cabbage leaves (Brassica oleracea) are treated by being dipped into the preparation of active compound of the desired concentration and are populated with caterpillars of the diamond-back moth (Plutella xylostella) while the leaves are still moist.
(§2) After the desired period of time, the kill in % is determined. 100% means that all caterpillars have been killed; 0% means that none of the caterpillars have been killed.

The subject of data set [2] is all stages of the greenhouse red spider mite (Tetranychus urticae). Kind of data set: Tetranychus test (OP-resistant/dip treatment). The note with it: after 7 days, dipped bean plants. It is filed as in vivo. As for the experimental part: Tetranychus test (OP-resistant/dip treatment)
To produce a suitable preparation of active compound, 1 part by weight of active compound is mixed with the stated amounts of solvent and emulsifier, and the concentrate is diluted with emulsifier-containing water to the desired concentration.
Bean plants (Phaseolus vulgaris) which are heavily infested by all stages of the greenhouse red spider mite (Tetranychus urticae) are dipped into a preparation of the active compound of the desired concentration.
After the desired period of time, the action in % is determined. 100% means that all spider mites have been killed; 0% means that none of the spider mites have been killed.

Data set [3] concerns caterpillars of the army-worm (Spodoptera frugiperda). Kind of data set: Spodoptera frugiperda test. In kind it is in vivo. The note with it: dipped cabbage leaves. On the procedure: Spodoptera frugiperda test
as §1
Cabbage leaves (Brassica oleracea) are treated by being dipped into the preparation of active compound of the desired concentration and are populated with caterpillars of the army-worm (Spodoptera frugiperda) while the leaves are still moist.
as §2

A short description of data set [4]: HPLC log P determination. In kind it is physicochemical. The note with it: alkane/water partition, estimated by HPLC retention. On the procedure:
* log P=[…] logarithm to base 10 of the alkane/water partition coefficient, determined by HPLC analysis using water/acetonitrile as mobile phase on 125×4.0 mm Kromasil […] (5 μm); flow rate: 1.5 ml/min.

For data set [5], the system named is caterpillars of the cotton bollworm (Heliothis armigera). Kind of data set: Heliothis armigera test. In kind it is in vivo. The conditions noted are these: concentration of active compound 0.004%; after 6 days; dipped soybean shoots. As for the experimental part: as §1
Soybean shoots (Glycine max) are treated by being dipped into the preparation of active compound of the desired concentration and are populated with caterpillars of the cotton bollworm (Heliothis armigera) while the leaves are still moist.
as §2

Data set [6] has as its system larvae of the mustard beetle (Phaedon cochleariae). Kind of data set: Phaedon larvae test. The note with it: dipped cabbage leaves. It is filed as in vivo. As for the experimental part: Phaedon larvae test [table] To produce a suitable preparation of active compound, 1 part by weight of active compound is mixed with the stated amounts of solvent and emulsifier, and the concentrate is diluted with emusifier-containing water to the desired concentration. Cabbage leaves (Brassica oleracea) are treated by being dipped into the preparation of active compound of the desired concentration and are populated with larvae of the mustard beetle (Phaedon cochleariae) while the leaves are still moist.

Setting [7] is: concentration of active compound 0.004%, after 6 days.
The mark [8] stands for this setting: concentration of active compound 0.01%, after 7 days.
The mark [9] stands for this setting: pH 2.3, read-out: HPLC log P (pH 2.3).

With `Cc1ccccc1C1=NC(c2ccc(-c3ccc(OC(F)(F)F)cc3)cc2)CC1` (stereo not drawn) [Example I-9], the kill in % in data set [1], in data set [3] (setting [7]), in data set [5] and in data set [6] (setting [7]) was 100% each time. Also, the “kill (action in %)” value in data set [2] (concentration of active compound 0.004%) amounted to 98%. For the same compound, in data set [4] (neutral, HPLC, water/acetonitrile mobile phase, read-out: HPLC log P (neutral)), the chromatographic logP was 6.05.
As to `Cc1ccccc1C1=NC(c2ccc(-c3ccc(OC(F)(F)C(F)F)cc3)cc2)CC1` (stereo not drawn) [Example I-43], the “kill (action in %)” value in data set [2] (concentration of active compound 0.01%) turned out to be 100%. The kill in % in data set [3] (setting [8]) and in data set [6] (setting [8]) was 100% throughout. Further, the chromatographic logP in data set [4] (setting [9]) is 3.02.
In the case of `Cc1ccccc1C(=O)CCC(NC(=O)OC(C)(C)C)c1ccc(-c2ccc(OC(F)(F)C(F)F)cc2)cc1` (stereo not drawn) [Example VIII-43], the chromatographic logP in data set [4] (setting [9]) is 5.05.
As to `O=C1CCC(c2ccc(-c3ccc(OC(F)(F)C(F)F)cc3)cc2)N1` (stereo not drawn) [Example XI-43], in data set [4] (pH 2-3, read-out: HPLC log P (pH 2-3)), the chromatographic logP is 2.79.
